Structures are written as SMILES.

Usually melting point stands for the temperature, or range, at which the solid turns liquid.

`CCOc1ccc(N2CC(C(=O)O)CC2=O)cc1` (stereo unspecified) gave a melting point of 133 to 137 °C.

Compound `Cc1nnc(S)n1Cc1ccccc1` gave a melting point of 164 to 166 °C. The same measure for `CN(c1ccccc1)S(=O)(=O)c1cccc(NC(=O)CCl)c1`: 98 to 100 °C; for `COC(=O)c1oc(CCl)cc1C`: 53 to 55 °C. The compound `NC(=O)Cc1ccc(F)cc1` had a melting point of 155 to 157 °C. Consider `CCC(=O)Nc1ccc(O)cc1`, for which the melting point was 169 to 171 °C. For `O=C(O)C1CCN(S(=O)(=O)c2cc(F)ccc2F)CC1`, the melting point fell in the range of 149 to 151 °C. The same measure for `O=c1[nH]c(-c2cccc(C(F)(F)F)c2)cs1`: 182 to 184 °C; for `Fc1cccc(Nc2nnc(S)s2)c1`: 206 to 208 °C; for `COc1cccc(-n2c(S)nc(O)cc2=O)c1`: 197 to 199 °C. The same measure for `Nc1ncc(C(=O)O)cc1Cl`: 338 to 340 °C; for `O=C1NCCNC1c1ccccc1` (stereo unspecified): 139 to 141 °C; for `C=CCOc1c(Br)cc(C=O)cc1OC`: 52 to 53 °C. The result for `CCOc1cc(C(=O)O)cc(-c2ccccc2)c1OC` reads 161 to 163 °C; that for `NCCc1cccc(OCCCc2ccccc2)c1`, 44 to 46 °C; that for `O=C(O)C(NCC(F)(F)F)c1cc(Br)cs1` (stereo unspecified), 178 to 180 °C.

The compound `CNc1ccc(Br)cn1` displayed a melting point of 69 to 71 °C. The same measure for `CNc1ccc(Cl)cc1[N+](=O)[O-]`: 106 to 108 °C; for `COC(=O)c1ccc(-c2noc(CC(C)(C)C)n2)cc1`: 114 to 116 °C; for `O=C(O)c1ccc(COc2ccc(Br)cc2)o1`: 194 to 196 °C. `CC(Cc1nc2ccccc2s1)(C(=O)O)c1ccccc1` (stereo unspecified) had a melting point of 193 to 195 °C. `CC(C)(C(=O)O)c1ccc([N+](=O)[O-])cc1` gave a melting point of 129 to 131 °C. In the case of `O=C(O)c1cc2c(F)ccc(F)c2[nH]1`, the melting point was 229 to 231 °C. The same measure for `O=C1CCNc2ccc(C(=O)O)cc2N1`: 281 to 283 °C; for `O=C(O)C1CC2COCC(C1)C2=O` (stereo unspecified): 196 to 198 °C. The result for `CCCCn1c(N)c(NC2CCCC2)c(=O)[nH]c1=O` reads 250 to 252 °C; that for `Nc1ccc(Cc2nnc3ccccn23)cc1`, 207 to 209 °C.

Consider `CCn1nccc1C=CC(=O)O`, for which the melting point is 151 to 153 °C.

On to `O=C(O)C1CCN(C(=O)c2cccc3ccccc23)CC1`, for which the melting point was in the range of 190 to 192 °C. The result for `Cc1ccc(S(N)(=O)=O)cc1NC(=O)CCl` reads 179 to 181 °C; that for `Nc1c(C(=O)O)ccc2cccnc12`, 207 to 209 °C.

`N#Cc1cccc(NC(=O)c2cccc(N)c2)c1` registered a melting point of 163 to 165 °C. The same measure for `CN(C(=O)CCl)c1nccs1`: 123 to 125 °C; for `CCNc1ncc(C(=O)OC)s1`: 136 to 138 °C. The result for `N#CC(C(=O)CCl)c1nc(-c2ccccc2)cs1` (stereo unspecified) reads 215 to 217 °C; that for `NCC(O)COc1ccc(C(F)(F)F)cc1` (stereo unspecified), 98 to 100 °C. The same measure for `Nc1nc2cc(-c3ccccc3)cc(Cl)c2o1`: 237 to 239 °C; for `Fc1ccc(-c2cnc(CBr)o2)cc1`: 30 to 41 °C; for `NCCC(=O)Nc1ccc(C(N)=O)c(Cl)c1`: 264 to 266 °C.

In turn, `Cn1nnnc1S(C)(=O)=O` gave a melting point of 64 to 66 °C. `CC(C)(C)OC(=O)N1CCC(C(=O)NN)CC1` displayed a melting point of 98 to 100 °C. The compound `CC(C)(C)C1CCc2nc(N)sc2C1` (stereo unspecified) registered a melting point of 131 to 133 °C. The result for `O=C(c1cc(S(=O)(=O)Cl)c[nH]1)N1CCCC1` reads 191 to 193 °C; that for `O=C(O)C1=CC=CN2CCS(=O)(=O)N=C12`, 313 to 315 °C. For the compound `c1ccc2c(c1)ncn2C1CCCNC1` (stereo unspecified), the melting point lay within 104 to 106 °C. The compound `O=C(CCl)N1CCOC1=O` showed a melting point of 53 to 55 °C. The result for `N#CC1(N)CCCCC1` reads 25 to 27 °C; that for `Cc1cc(C)c(C)c(OCCC(=O)O)c1`, 129 to 131 °C; that for `COCCOc1nc(C(=O)O)cc2ccccc12`, 145 to 147 °C. The result for `O=C(O)C1CCCN(C(=O)c2ccc(Cl)c(Cl)c2)C1` (stereo unspecified) reads 163 to 165 °C; that for `COC(=O)C(=O)Nc1ccc(C)cc1`, 147 to 149 °C. The compound `NNC(=O)Cn1ccc(C(F)(F)F)n1` registered a melting point of 157 to 159 °C. The same measure for `O=C(Nc1ccc(Cl)cc1)Nc1ccccc1Br`: 222 to 224 °C; for `Cc1nn(-c2ccc(Br)cc2)c(C)c1C=O`: 142 to 144 °C; for `CC(Oc1cccc(C=O)c1)C(=O)O` (stereo unspecified): 65 to 67 °C. In turn, `Nc1ccccc1Cc1ccccc1` showed a melting point of 55 to 57 °C. The same measure for `CC(C)(C)OC(=O)NC(CC(=O)O)c1ccccc1` (stereo unspecified): 135 to 137 °C.

`O=C(O)CCC(=O)NCC(=O)c1ccc(F)cc1F` showed a melting point of 173 to 175 °C. The result for `CNCC(O)COc1ccc([N+](=O)[O-])cc1` (stereo unspecified) reads 142 to 144 °C; that for `Clc1ccc2nnc(C3CCCO3)n2n1` (stereo unspecified), 139 to 141 °C. Compound `CC(C)c1cc(C(=O)O)cc(O)n1` gave a melting point of 309 to 311 °C. `CNS(=O)(=O)c1ccc(NCCOC)c(N)c1` came in with a melting point of 111 to 113 °C. The result for `O=S(=O)(Cl)C1CCOCC1` reads 34 to 36 °C; that for `CC(=O)NCCNCc1ccccc1`, 51 to 53 °C. The same measure for `CCc1cc(N)on1`: 49 to 51 °C; for `COc1cc(OC)cc(C(=O)Nc2ccc(C(=O)O)c(O)c2)c1`: 219 to 221 °C. On to `O=C(O)C(=O)c1ccc(Br)cc1O`, for which the melting point is 188 to 190 °C. The same measure for `Cc1cc(N2CCCS2(=O)=O)ccc1C(=O)O`: 249 to 251 °C; for `Cc1ccccc1-c1cc(N)n(Cc2ccccc2)n1`: 139 to 141 °C. The same measure for `O=C(O)c1ccccc1OC1CCCCC1`: 86 to 88 °C; for `CS(=O)(=O)Cc1ccc(Cl)cc1N`: 140 to 142 °C. Compound `COc1cc(C)ccc1Oc1ccc(N)cn1` registered a melting point of 106 to 108 °C. The result for `Ic1nnc[nH]1` reads 196 to 198 °C. On to `O=C(O)COc1ccc(N2CCCC2=O)cc1`, for which the melting point was in the range of 150 to 155 °C. `N#Cc1cc(C(=O)c2ccccc2O)cn(-c2ccccn2)c1=O` displayed a melting point of 147 to 150 °C.

With `Nc1cccc(N2CCS(=O)(=O)CC2)c1`, the melting point is 151 to 153 °C.

`O=C(O)c1ccc(CN2C(=O)CNC2=O)cc1`: the melting point was in the range of 282 to 284 °C. `N#Cc1cc(F)ccc1N=C=O` returned a melting point of 31 to 33 °C. Compound `Cc1nnc(SCC(=O)O)n1Cc1ccccc1` showed a melting point of 167 to 169 °C. The result for `COc1ccc(Cl)cc1C(F)(F)C(=O)O` reads 110 to 112 °C; that for `COC(=O)c1ccc(F)c(CBr)c1`, 50 to 52 °C.

The compound `O=C(O)c1nc[nH]n1` had a melting point of 132 to 136 °C. The compound `COCC(=O)c1ccc(F)c(F)c1` registered a melting point of 39 to 41 °C. Compound `Cc1cc(C(=O)O)nn1-c1ccccn1` registered a melting point of 157 to 159 °C.

The compound `CC(O)c1nc2ccccc2n1C(F)F` (stereo unspecified) had a melting point of 96 to 98 °C. As for `c1cc2c(cn1)ncn2C1CC1`, the melting point was in the range of 53 to 55 °C.

As to `COC(=O)Cc1cc(O)n[nH]1`, the melting point was in the range of 143 to 145 °C.

As to `OC1CCc2cn[nH]c2C1` (stereo unspecified), the melting point lay in the range of 154 to 156 °C. `Cc1cc(C)n(-c2cncc(Cl)n2)n1` yielded a melting point of 88 to 90 °C.

The compound `CC(=O)c1c[nH]c(C(=O)O)c1` had a melting point of 201 to 203 °C.

In turn, `Clc1cc2nncn2cn1` displayed a melting point of 111 to 113 °C. For `CC1(c2cccc([N+](=O)[O-])c2)NC(=O)NC1=O` (stereo unspecified), the melting point was in the range of 178 to 180 °C. `CCOC(=O)c1nnc(N)s1` gave a melting point of 197 to 199 °C.

In the case of `Cc1ccc(N2CC(C(=O)O)CC2=O)c(F)c1` (stereo unspecified), the melting point was in the range of 112 to 114 °C. The same measure for `Cn1c(C(C)(C)C)nc2cc(N)ccc21`: 164 to 166 °C.

As for `Cc1oncc1C(=O)Nc1ccc(CC(=O)O)cc1`, the melting point is 208 to 210 °C. The result for `CCCCNc1ccc(S(N)(=O)=O)cc1N` reads 130 to 132 °C. In the case of `CCCCS(N)(=O)=O`, the melting point lay in the range of 43 to 45 °C. For the compound `c1ccc2[nH]c(Cc3nc4ccccc4s3)nc2c1`, the melting point was 194 to 196 °C. As for `CCCOc1ccc(C(F)(F)F)cc1NC(=O)CCl`, the melting point is 73 to 75 °C. The result for `O=C(O)c1cnc2scc(-c3ccccc3)n2c1=O` reads 244 to 246 °C; that for `Cc1sc(N)nc1-c1c[nH]c2ncccc12`, 240 to 242 °C.

With `O=C1C(Br)=CC2C1C1C=CC2(Br)C12OCCO2` (stereo unspecified), the melting point was 171 to 173 °C. In the case of `CC(=O)c1sc(NCCCC(=O)O)nc1C`, the melting point lay in the range of 140 to 142 °C. The compound `O=C(O)c1ccc2c(c1)CCC2` yielded a melting point of 173 to 175 °C. The same measure for `O=C(O)C=Cc1cc(Cl)ccc1OCc1ccc(F)cc1`: 166 to 168 °C; for `CN(C)C(=O)Nc1ccc(C(=O)O)c(Cl)c1`: 191 to 193 °C. The result for `COC(=O)/C=C/c1ccc(OC)c(S(=O)(=O)Cl)c1` reads 115 to 117 °C. The result for `O=C(O)c1cc([N+](=O)[O-])cnc1Br` reads 135 to 137 °C. Compound `CCOc1ccc(Br)cc1S(=O)(=O)Cl` came in with a melting point of 109 to 111 °C. Consider `BrCCCOc1ccc2c(c1)OCO2`, for which the melting point lay in the range of 60 to 62 °C.

Regarding `O=C(CCl)Nc1ccccc1C(=O)O`, the melting point was 185 to 187 °C. The same measure for `COc1ccc(CCC(=O)O)cc1N`: 121 to 123 °C; for `CC1CCc2sc(C(=O)NN)cc2C1` (stereo unspecified): 122 to 124 °C; for `CCN(CC)S(=O)(=O)c1cccc(NC(=O)CCl)c1`: 82 to 84 °C.

As for `C=CC(=O)Nc1ccccc1OC`, the melting point lay within 68 to 70 °C. The compound `Cc1n[nH]c(O)c1C#N` gave a melting point of 229 to 231 °C. The result for `O=C(O)C(Oc1cccc(F)c1)c1ccccc1` (stereo unspecified) reads 108 to 110 °C.

The compound `CC(=O)c1ccccc1NS(=O)(=O)c1ccc(C)cc1` displayed a melting point of 148 to 150 °C.

`Cc1ccc(NS(=O)(=O)c2ccc(C)c(N)c2)c(C)c1` registered a melting point of 111 to 113 °C. The result for `COC(=O)c1cc(Cl)c(O)c(Cl)c1` reads 117 to 121 °C.

Values taken from a melting point compilation (Tetko et al.).
